From patent US10220051B2, “Combination of DNA repair inhibition with bendamustine or gemcitabine in the treatment of cancer” (Institute for Cancer Research, priority 2012, dated 2019)
Entries after “also recorded” stand apart in the source; their conditions may differ.

Key:
Assay type in all cases: cell-based
Hela cells [1] = assay: EdU incorporation (DNA synthesis); conditions: EdU 10 μM, 12 h
Method: EdU incorporation. Hela cells were treated with nocodazole for 14 h after which time mitotic cells were collected by mechanical shake-off. Cells were washed twice with medium and re-plated. BDM and EdU (10 μM) (Click-IT™ EdU imaging kit, Invitrogen) were added 2 h later, when the cells were fully adherent and still in G1, and incubated for an additional 12 h. Cells were fixed and stained according to the manufacturer's protocol. Quantification of EdU incorporation was performed as described for antibody detection.

[2] = tested on: PANC1, BXPC3, MCF-7, MDA-MB-435, OVCAR 5 and 10 cells; assay: Cell cycle profile by FACS, panel of cancer cell lines; conditions: 24 h
Method: (§1) DNA content analysis via flow cytometry. Following indicated drug treatments, cells were fixed with 70% ethanol. For analysis, cells were stained with propidium iodide, RNase A and sodium citrate. Cells were incubated at 37° C. for 30 minutes before being analyzed using a Becton Dickinson single laser three-fluorescence FACScan flow analyzer and Cell Quest software (Becton Dickinson). DNA content was acquired from 10,000 events and FlowJo software was used to process the data.

Hela cells [3] = assay: Cell cycle profile by FACS (DNA content), Hela
Method: as §1

[4] = tested on: U2932 B cell lymphoma cells; assay: Cell cycle profile by FACS, U2932
Method: as §1

Hela cells [5] = assay: Clonogenic assay, Hela; conditions: for colony formation relative to control (100%): washout, ~10 days
Method: Clonogenic assay. Hela cells were seeded into 6 well plates at a density of 1000 cells per well. Cells were treated for 24 h. Cells were then treated with and without UCN-01 (100 nM) for 3 h. All drugs were washed out and cells were left to grow for approximately 10 days. Cells were fixed using Acetic acid:methanol:H2O, (10:10:80), dried and stained with 0.4% crystal violet in 20% ethanol. Qualitative images of representative results are presented. For quantification, colonies were solubilized (1% acetic acid, 30% ethanol) and absorbance values at 595 nm were read. Values are expressed as a percentage relative to untreated cells, with untreated cells set to 100%±SD. Experiments were conducted in triplicate, three independent times. Student's two-tailed unpaired t test was conducted for statistics.

Hela cells [6] = assay: Immunofluorescence of DNA damage foci (γ-H2AX, 53BP1, RPA)
Method: (§2) Immunofluorescence. Cells were grown on coverslips, treated with the indicated drugs, fixed and stained. To detect DNA damage induction and repair, antibodies against 53BP1 (Bethyl) and γ-H2AX (Upstate) were used with Alexa Fluor-conjugated secondary antibodies (Invitrogen). All cells were counter-stained with DAPI (Molecular probes). Images were captured using a 40× or 100× objective mounted on an inverted microscope (Eclipse TE2000S; Nikon) with a CCD camera (Photometrics Cascade 512F; Roper Scientific) powered by NIS Elements AR (version 3.10) software (Nikon). For quantitative analysis, individual nuclei were identified using DAPI staining and used to define region of interests (ROI), which were then transposed onto other channels. The sum intensity per nuclei from a minimum of 50 nuclei was averaged±SEM.

Hela cells [7] = assay: Cell viability MTS assay, Hela; conditions: for cell viability, BDM alone: 3.125-200 μM, 48 h continuous
Method: (§3) Cell viability and apoptosis assays. Hela cells were seeded into 96 well plates at a density of 1500 cells per well. Cells were treated with BDM (3.125-200 μM) for 24 h. After this time cells were additionally treated either with UCN-01 (100 nM), Chk2 inhibitor (100 nM) or Gö6976 (200 nM) for an additional 24 h. MTS reagent (CellTiter 96® AQueous Proliferation Assay, Promega) was added to each well for 4 h before the absorbance values at 490 nm was read. Experiments were conducted in triplicate, 3 independent times. Data presented are the average absorbance values, relative to control±SD. For apoptosis determination, cells seeded and treated as stated above were stained with Guava Nexin Reagent® (Millipore). Analysis was conducted using the Easycyte module and Cytosoft Software® (Millipore). Experiments were conducted 3 independent times, collecting 2000 events each time. Data shown is the average±SD.

[8] = tested on: mouse embryonic fibroblasts (WT and TDG−/−); assay: γ-H2AX immunofluorescence in WT and TDG−/− MEFs
Method: as §2

Hela cells [9] = assay: Chk1 phosphorylation (Ser-345) in lysates
Method: Hela cells were treated for 24 or 48 h continuous treatment or of either 50 or 200 μM BDM or 24 h followed by 24 h in the absence of drugs. […] Quantification of the average fluorescence per nucleus is shown on the right. For γ-H2AX: *P=8.9×10^−28 vs. untreated 24 h; **P=2.1×10^−31 vs. untreated 24 h; †P=5.2×10^−45 vs. untreated 48 h. For 53BP1: *P=4.3×10^−20 vs. untreated 24 h; **P=4.2×10^−41 vs. untreated 24 h; †P=2.0×10^−52 vs. untreated 48 h. For RPA: *P=2.5×10^−16 vs. untreated 24 h; **P=2.8×10^−52 vs. untreated 24 h; †P=3.3×10-^58 vs. untreated 48 h. […] Total Chk1 and alpha tubulin were used to determine loading.

[10] = tested on: Hela cells stably expressing GFP:histone H2B; assay: Time-lapse video microscopy of mitosis
Method: Time-lapse video microscopy. Hela cells stably expressing GFP:histone H2B were seeded into 6 well plates and synchronized in S phase using thymidine (2 mM). […] Where appropriate, UCN-01 (100 nM) was added to wells before being supplemented with HEPES (25 mM), layered with mineral oil (Sigma) and placed into a housing chamber which maintained the temperature at 37° C. Using a Nikon TE2000 microscope (Nikon) controlled by MetaMorph software (Molecular Devices), brightfield and fluorescent images were captured every 5 minutes for up to 48 h. Individual movies were analyzed manually and a minimum of 100 cells per treatment scored for the indicated measurements. For montages, selected frames representing different cell morphologies are presented.

Hela cells [11] = assay: Apoptosis assay (Guava Nexin Reagent); conditions: BDM 200 μM followed by Chk1 inhibitor; p<0.01 vs. control
Method: as §3

Hela cells [12] = assay: Metaphase spreads
Method: Metaphase spreads. Mitotic cells were collected from untreated and bendamustine at 50 μM or 200 μM+UCN-01 (100 nM) treatments. For visualizing, cells were dropped onto a glass slides and stained with DAPI. Mitotic spreads were viewed and imaged using fluorescence microscopy. Images shown are representative of those observed.

Hela cells [13] = assay: Electron microscopy of mitotic chromosomes
Method: Electron microscopy. Hela cells were seeded into 6 cm dishes, synchronized with thymidine (2 mM) and treated with BDM 50 μM, 200 μM or gemcitabine (100 μM) for 18 h. Cells treated with UCN-01 (100 μM) for an addition 9 h to obtain mitotic cells were fixed with glutaraldehyde solution (3%, pH 7.4). Samples were prepared for electron microscopy analysis.

SK28 cells [14] = assay: SK28 cell viability (MTS assay); conditions: SK28, concentration-dependent, quadruplicate
Method: (§4) Tests were conducted in quadruplicate.

SK28 cells [15] = assay: SK28 clonogenic assay; conditions: SK28, concentration-dependent, quadruplicate
Method: as §4

[16] = 50 μM BDM 24 h, then UCN-01 100 nM

Q: For `Cn1c(CCCC(=O)O)nc2cc(N(CCCl)CCCl)ccc21` [BDM, Bendamustine], which “EdU incorporation relative to untreated (100%)” value (Hela cells [1]; 50 μM BDM) is on record?
A: 98.0±4.1%

Q: What about the “EdU incorporation relative to untreated (100%)” value (Hela cells [1]; 200 μM BDM) of the same compound?
A: 64.7±2.6%

Q: And the cell cycle arrest ([2]; 50 μM BDM)?
A: G2 arrest

Q: And the cell cycle arrest ([2]; 200 μM BDM)?
A: S phase arrest

Q: And the cell cycle profile (Hela cells [3]; 50 μM BDM 24 h, then another 24 h with or without BDM)?
A: displayed a normal cell cycle profile

Q: And the cell cycle arrest (Hela cells [3]; 200 μM BDM, after washout or 48 h continuous)?
A: maintained after drug washout, or 48 h continuous treatment

Q: And the cell cycle profile (Hela cells [3]; Hela synchronized in G1, 200 μM BDM, 24 h)?
A: arrested in S phase

Q: And the cell cycle profile (Hela cells [3]; Hela synchronized in G1, 25-100 μM BDM, 24 h)?
A: accumulated as 4N DNA content indicating a G2/M delay

Q: What about the cell cycle arrest ([4]; 10 μM BDM) of the same compound?
A: induced a G2 arrest

Q: What about the cell cycle arrest ([4]; 25 μM BDM) of the same compound?
A: S phase arrest

Q: And the cell cycle arrest ([4]; 50 μM BDM)?
A: induced an S phase arrest

Q: What about the “colony formation relative to control (100%)” value (Hela cells [5]; 50 μM BDM 24 h) of the same compound?
A: 87.8±11.2%

Q: What about the “reduction in clonogenic survival” value (Hela cells [5]; 200 uM BDM) of the same compound?
A: 95%

Q: What about the “colony formation relative to control (100%)” value (Hela cells [5]; 200 μM BDM 24 h) of the same compound?
A: 3.5±1.3%

Q: And the “γ-H2AX, RPA and 53BP1 foci” value (Hela cells [6]; 50 μM BDM 24 h, then 24 h after washout)?
A: reduced to levels comparable to untreated cells

Q: What about the “γ-H2AX, RPA and 53BP1 foci” value (Hela cells [6]; 50 μM BDM, 24 h) of the same compound?
A: accumulated γ-H2AX, RPA and 53BP1 foci

Q: What about the “γ-H2AX, RPA and 53BP1 staining” value (Hela cells [6]; 50 μM BDM, 48 h continuous) of the same compound?
A: reduced to control cells

Q: What about the “γ-H2AX, RPA and 53BP1 foci” value (Hela cells [6]; 200 μM BDM 24 h, after drug removal) of the same compound?
A: foci persisted after drug was removed

Q: And the “γ-H2AX, RPA and 53BP1 foci” value (Hela cells [6]; 200 μM BDM, 24 h)?
A: an increase in γ-H2AX, RPA and 53BP1

Q: What about the DNA damage foci (Hela cells [6]; 200 μM BDM, 48 h continuous) of the same compound?
A: not reduced

Q: What about the “53BP1, RPA and γ-H2AX nuclear foci” value (Hela cells [6]; dose dependence) of the same compound?
A: increased in a dose-dependent manner

Q: And the “cell viability, BDM alone” value (Hela cells [7])?
A: did not reduce cell viability as compared to control treatment

Q: And the “cell viability, BDM alone” value (Hela cells [7]; listed as bendamustine)?
A: not particularly effective at killing Hela cells

Q: What about the “γ-H2AX staining, TDG−/− MEFs versus wildtype MEFs” value ([8]; 10 μM BDM, 24 h) of the same compound?
A: increased γ-H2AX staining

Q: And the “repair of DNA damage, TDG−/− MEFs versus wildtype MEFs” value ([8]; 48 h continuous treatment)?
A: reduced ability to repair the DNA damage

Q: And the “Chk1 phosphorylation (Ser-345)” value (Hela cells [9]; 50 μM BDM, 48 h)?
A: no signal was observed

Q: And the “Chk1 phosphorylation (Ser-345)” value (Hela cells [9]; 200 μM BDM, 48 h)?
A: detectable pChk1 was still present

Q: And the “Chk1 phosphorylation (Ser-345)” value (Hela cells [9]; 24 h treatment)?
A: dose-dependently phosphorylated

Q: What about the “fate of cells forced into mitosis” value ([10]; 50 μM BDM + Chk1 inhibition) of the same compound?
A: progress through mitosis relatively normally

Q: And the “percentage of cells entering mitosis” value ([10]; 50 μM BDM, over 24 h)?
A: caused a reduction in the percentage of cells entering mitosis

Q: What about the mitotic index ([10]; 200 μM BDM) of the same compound?
A: reduced mitotic index

Q: What about the “fate of cells forced into mitosis” value ([10]; 200 μM BDM + Chk1 inhibition) of the same compound?
A: majority failing to exit and instead die in mitosis

Q: What about the mitotic figures ([10]; 200 μM BDM + Chk1 inhibition) of the same compound?
A: highly abnormal

Q: How did the “percentage of apoptotic cells” value (Hela cells [11]) turn out when `Cn1c2ccccc2c2c3c(c4c5ccccc5n(CCC#N)c4c21)CNC3=O` [Gö6976] was run?
A: exhibited an increase in the percentage of apoptotic cells

Q: For `CON` [MX, methoxyamine], which “γ-H2AX foci, combination with BDM” value (Hela cells [6]; 50 μM BDM + methoxyamine 6 mM, 48 h) is on record?
A: significantly higher levels of γ-H2AX foci than BDM alone

Q: Which “repair of BDM-induced damage (γ-H2AX)” value (Hela cells [6]; 50 μM BDM + NU7441 10 μM, 48 h) does the source give for `O=c1cc(N2CCOCC2)oc2c(-c3cccc4c3sc3ccccc34)cccc12` [NU7441] here?
A: did not block repair of BDM-induced damage

Q: Which results are given for `CN[C@@H]1C[C@H]2O[C@@](C)([C@@H]1OC)n1c3ccccc3c3c4c(c5c6ccccc6n2c5c31)C(=O)N[C@@H]4O` [UCN-01]?
A: percentage of apoptotic cells (Hela cells [11]): exhibited an increase in the percentage of apoptotic cells; chromosome morphology in metaphase spreads (Hela cells [12]; BDM 50 μM + UCN-01): no obvious gross structural defects; chromosome morphology in metaphase spreads (Hela cells [12]; BDM 200 μM + UCN-01): extremely abnormal; chromosome ultra-structure (electron microscopy) (Hela cells [13]; BDM 50 μM + UCN-01): intact chromosomes were clearly visualized; chromosome ultra-structure (electron microscopy) (Hela cells [13]; BDM 200 μM + UCN-01): highly fragmented; sensitization to killing by BDM (viability) (Hela cells [7]; 200 μM BDM 24 h, then Chk1 inhibitor 24 h): viability was significantly reduced; sensitization to killing by BDM (Hela cells [7]; BDM up to 100 μM 24 h, then UCN-01 100 nM 24 h): did not sensitize; cell viability, UCN-01 alone (Hela cells [7]; UCN-01 alone, any of the assays performed): no discernable effects on cell viability; effect on BDM-induced arrest [10, 16]: abrogated the arrest; time to start of mitotic entry after UCN-01 addition [10, 16]: 4 h; delay at metaphase (average) ([10]; 50 μM BDM + UCN-01, controls 37.5±16.7 minutes): 89 ± 64.7 min

Q: For `C=CC1=C(C(=O)O)N2C(=O)[C@@H](NC(=O)/C(=N\OCC(=O)O)c3csc(N)n3)[C@H]2SC1` [cefixime, (6R,7R)-7-{[2-(2-amino-1,3-thiazol-4-yl)-2-(carboxymethoxyimino)acetyl]amino}-3-ethenyl-8-oxo-5-thia-1-azabicyclo[4.2.0]oct-2-ene-2-carboxylic acid], which cell viability (SK28 cells [14]) is on record?
A: reduce cell viability

Q: And the “clonogenic capacity / colony-forming ability” value (SK28 cells [15])?
A: reduce cell viability and clonogenic capacity; also recorded: reduction of clonogenic capacity

Q: Which “sensitization to killing by BDM” value (Hela cells [7]; any BDM concentration (3.125-200 μM), Chk2 inhibitor 100 nM) does the source give for `NC(=O)c1ccc2nc(-c3ccc(Oc4ccc(Cl)cc4)cc3)[nH]c2c1` [pharmacological inhibitor of Chk2] here?
A: did not sensitize to killing by any concentration of BDM
